Measured values taken from patent publication US20260027190A1, “OVARIAN TUMOR DEUBIQUITINASE OXIDATION AND USES THEREOF” (The University of Vermont and State Agricultural College, priority 2022, published 2026).
Residues, ends and D or L forms follow the SMILES beside them. *: point of attachment. Cbz = O=C(OCc1ccccc1)*

Experiments:
[1] = system: mouse tracheal epithelial (MTE) cells; experiment: Total GSH measurement (DTNB assay) in MTE cells; format: cell-based
Procedure: It has been previously shown that the pleotropic cytokine IL1B augments glycolysis in lung epithelial cells, and that interleukin 1B (IL1B) is linked to oxidative stress. The pentose phosphate pathway, an offshoot of glycolysis, regulates the redox environment by providing nicotinamide adenine dinucleotide phosphate (NADPH) reducing equivalents necessary for glutathione (GSH) homeostasis. The effects of GSH in response to IL1B were examined. Briefly, GSH was measured using a 5,5′-dithio-bis (2-nitrobenzoic acid) (DTNB) assay in both control and IL1B-stimulated mouse tracheal epithelial cells. […] Statistics on the left panel represent the total GSH levels, without differentiating between labeled and unlabeled portions of GSH (P-value*<0.05, ****<0.0001).
(§1) A regulator of GSH homeostasis is the transporter system xC-, which exports glutamate and concomitantly imports cystine in a 1:1 ratio. Once inside the cells, cystine is reduced to two cysteines, the latter being the rate limiting amino acid required for GSH synthesis. These relationships were examined further. […] To address whether IL1B-induced increases in GSH are system xC- dependent, two system xC- inhibitors, erastin (Er) and sulfasalazine (SAS) were used. Cells were pretreated for one hour, followed by IL1B treatment for 24 hours. Then, GSH levels were measured in cells exposed to increasing doses of Er or SAS (FIG. 2G). Extracellular glutamate levels in cell culture supernatant of cells pretreated with 0.5 micromolar Er (left) or 100 micromolar SAS (right) for 1 hour before IL1B stimulation were also measured (FIG. 2H). […] System xC- inhibition is known to induce ferroptosis, an iron-dependent mode of cell death characterized by increased lipid peroxidation. However, no changes in cell viability using erastin (5 micromolar) or sulfasalazine (500 micromolar) were detected (FIG. 2I; P-value*<0.05, ***<0.001, ****<0.0001).
(§2) Primary mouse tracheal epithelial (MTE) cells were isolated from C57BL/6NJ wild-type or C57BL6/NJ mice lacking Glrx1 gene and cultured. Cells were grown on collagen coated plastic plates or transwell inserts with media change every 2 days until confluency. For interleukin 1B (IL1B) treatment: cells were incubated in plain Dulbecco's Modified Eagle Medium (DMEM): F12 media containing 6 mM glucose and 2 mM glutamine overnight followed by stimulation with 10 ng/ml IL1B or 0.1% bovine serum albumin (BSA) in phosphate buffered saline (PBS) (vehicle control) for 24 hours. Treatment with crastin, sulfasalazine or BSO occurred 1 hour before IL1B stimulation. Media and cells were collected for further analysis. For growing H522 and OTUB1-CRISPR-H522 cells: Roswell Park Memorial Institute (RPMI) media supplemented with 10% fetal bovine serum (FBS) and 1% pen/strep was used to grow the cells. Plasmid over-expression and OTUB1 knock-down experiments were done when cells were 60-70% confluent.
Cell lysates were prepared in 100 mM potassium phosphate buffer containing 0.6% sulfosalicylic acid, 1 mM ethylenediaminetetraacetic acid (EDTA) and 0.01% triton-x-100. To measure total glutathione (GSH), equal amounts of proteins were incubated with 3 micromolar 5,5′-dithio-bis (2-nitrobenzoic acid) (DTNB) reagent and 2.25 microgram/ml glutathione reductase followed by the addition of 240 micromolar Nicotinamide adenine dinucleotide phosphate (NADPH). Kinetic absorbance was measured every minute at 412 nm for 20 minutes. […]

[2] = system: mouse tracheal epithelial (MTE) cells; experiment: Extracellular glutamate in cell culture supernatant of MTE cells; format: cell-based
From the text: as §1, §2
Glutamate in media was measured using Biovision kit following manufacturer's protocol.

[3] = system: SLC7A11; experiment: SLC7A11 non-reducing Western blot in MTE cells; format: cell-based, mouse; details: MG132 5 micrograms/ml, 24 hours
Procedure: OTUB1 was previously shown to interfere with ubiquitination and subsequent proteasomal degradation of SLC7A11. A SLC7A11 non-reducing Western blot using MTE cells pretreated with 5 micrograms/ml MG132 or 10 ng/ml IL1B for 24 hours with ACTB used as a loading control was performed (FIG. 7A). In addition, an assessment of GSH levels in MG132-(5 micrograms/ml, 24 hours) (FIG. 7B, left) or bortezomib-(FIG. 7B, right) (0.3 micromolar, 24 hours) treated MTE cells was undertaken (P-value***<0.001, ****<0.0001). Extracellular glutamate levels in MG132-treated MTE cells were also assessed (5 micrograms/ml, 24 hours) (FIG. 7C) (P-value***<0.001, ****<0.0001). The proteasome inhibitors MG132 or bortezomib increased SCL7A11, GSH and extracellular glutamate levels in tracheal epithelial cells (FIGS. 7A-7C), identifying the importance of proteasomal degradation of SLC7A11 in regulating system xC- and glutathione levels.
Bio-Rad DC protein estimation kit was used to determine protein concentration in cell lysates. Equal amounts of proteins were resolved using sodium dodecyl sulfate (SDS)-polyacrylamide gel electrophoresis and transferred to polyvinylidene difluoride (PVDF) membranes, blocked in 5% BSA and incubated with primary antibodies overnight. Membranes were subsequently incubated with peroxidase-conjugated secondary antibodies for one hour and then visualized using chemiluminescence.

[4] = system: mouse tracheal epithelial (MTE) cells; experiment: Calcein AM cell viability in MTE cells; format: cell-based; details: sulfasalazine 500 micromolar
From the text: Invitrogen Live/Dead viability/cytotoxicity kit was used to measure cell viability according to manufacturer's instruction. Data was expressed as percentage survival compared to control untreated cells.

[5] = system: mouse tracheal epithelial (MTE) cells; experiment: Total PSSG in MTE cells treated with recombinant GLRX; format: cell-based; details: direct administration of recombinant protein to MTE cells
Procedure: OTUB1 was one of the PSSG targets detected in IL1B-stimulated epithelial cells raising the possibility that S-glutathionylation of OTUB1 affects the stability of SLC7A11. To investigate this, immunoprecipitation of GSH followed by Western Blotting of OTUB1 in MTE cells treated with vehicle or IL1B was performed. Dithiothreitol (DTT) was incubated with cell lysates prior to immunoprecipitation as a negative control. OTUB1 levels from whole cell lysates were used as the input control. Increases in OTUB1 S-glutathionylation (OTUB1-SSG) in response to IL1B were observed, with further increases occurring in cells lacking Glrx (FIG. 4G), consistent with the role of GLRX as a deglutathionylating enzyme. Western blots were performed using cells treated with the WT- or C23S-mutant GLRX recombinant protein to examine the presence of glutaredoxin (FIG. 4H) and total PSSG (FIG. 4I) (P-value*<0.05, **<0.01, ***<0.001, ****<0.0001). […] Glutathione was evaluated in MTE cells treated with recombinant WT- or C23S-mutant GLRX (FIG. 4J) and glutamate in cell culture supernatant of MTE cells treated with WT or the C23S mutant GLRX was also evaluated (FIG. 4K). […]
Cell lysates were prepared in 100 mM potassium phosphate buffer containing 0.6% sulfosalicylic acid, 1 mM ethylenediaminetetraacetic acid (EDTA) and 0.01% triton-x-100. […] Kinetic absorbance was measured every minute at 412 nm for 20 minutes. […]

[6] = system: OTUB1; experiment: OTUB1-SSG: GSH immunoprecipitation followed by OTUB1 Western blot; format: cell-based, mouse; details: cells treated with recombinant protein
Procedure: OTUB1 was one of the PSSG targets detected in IL1B-stimulated epithelial cells raising the possibility that S-glutathionylation of OTUB1 affects the stability of SLC7A11. To investigate this, immunoprecipitation of GSH followed by Western Blotting of OTUB1 in MTE cells treated with vehicle or IL1B was performed. Dithiothreitol (DTT) was incubated with cell lysates prior to immunoprecipitation as a negative control. OTUB1 levels from whole cell lysates were used as the input control. Increases in OTUB1 S-glutathionylation (OTUB1-SSG) in response to IL1B were observed, with further increases occurring in cells lacking Glrx (FIG. 4G), consistent with the role of GLRX as a deglutathionylating enzyme. Western blots were performed using cells treated with the WT- or C23S-mutant GLRX recombinant protein to examine the presence of glutaredoxin (FIG. 4H) and total PSSG (FIG. 4I) (P-value*<0.05, **<0.01, ***<0.001, ****<0.0001). GAPDH was used as a loading control. Glutathione was evaluated in MTE cells treated with recombinant WT- or C23S-mutant GLRX (FIG. 4J) and glutamate in cell culture supernatant of MTE cells treated with WT or the C23S mutant GLRX was also evaluated (FIG. 4K). […]

[7] = MG132 5 micrograms/ml, 24 hours, MTE cells
[8] = direct administration of recombinant protein to MTE cells

Molecule: CC(C)C[C@@H](C=O)NC(=O)[C@H](CC(C)C)NC(=O)[C@H](CC(C)C)NC(=O)OCc1ccccc1 [MG132] (Cbz-Leu-Leu-Leu-aldehyde)
- GSH levels [1, 7]: increased
- extracellular glutamate levels [2, 7]: increased
- SLC7A11 levels [3]: increased

Molecule: O=C(O)c1cc(/N=N/c2ccc(S(=O)(=O)Nc3ccccn3)cc2)ccc1O [sulfasalazine]
- IL1B-induced increases in GSH ([1]; MTE cells pretreated 1 hour with increasing doses of Er or SAS, then IL1B 24 hours): significantly decreased
- IL1B-induced extracellular glutamate levels ([2]; MTE cells pretreated with 100 micromolar SAS for 1 hour before IL1B stimulation): significantly decreased
- cell viability [4]: no changes

Molecule: CC(C)C[C@H](NC(=O)[C@H](Cc1ccccc1)NC(=O)c1cnccn1)B(O)O [bortezomib]
- GSH levels ([1]; bortezomib 0.3 micromolar, 24 hours, MTE cells): increased

B1: C23S GLRX: catalytically inactive C23S mutant GLRX recombinant protein (protein, UniProt P35754 2-106, looked up, variant C23S)
Glutaredoxin-1: AQEFVNCKIQPGKVVVFIKPTSPYCRRAQEILSQLPIKQGLLEFVDITATNHTNEIQDYLQQLTGARTVPRVFIGKDCIGGCSDLVSLQQSGELLTRLKQIGALQ
- GSH levels [1, 8]: did not elicit these effects
- extracellular glutamate [2, 8]: did not elicit these effects
- overall PSSG [5]: did not elicit these effects
- OTUB1-SSG (OTUB1 S-glutathionylation) [6]: not
